The source made the active and inactive calls. The rule behind the calls is not given here.
Tests used:
[1] = target: T1, DNA topoisomerase 1 (Homo sapiens) (UniProt P11387); experiment: Inhibition of recombinant Top1 (unknown origin) assessed as inhibition of relaxation of supercoiled pBR322 plasmid DNA at 100 uM incubated for 15 mins by ethidium bromide staining based agarose gel electrophoresis analysis
T1 sequence (whole entry): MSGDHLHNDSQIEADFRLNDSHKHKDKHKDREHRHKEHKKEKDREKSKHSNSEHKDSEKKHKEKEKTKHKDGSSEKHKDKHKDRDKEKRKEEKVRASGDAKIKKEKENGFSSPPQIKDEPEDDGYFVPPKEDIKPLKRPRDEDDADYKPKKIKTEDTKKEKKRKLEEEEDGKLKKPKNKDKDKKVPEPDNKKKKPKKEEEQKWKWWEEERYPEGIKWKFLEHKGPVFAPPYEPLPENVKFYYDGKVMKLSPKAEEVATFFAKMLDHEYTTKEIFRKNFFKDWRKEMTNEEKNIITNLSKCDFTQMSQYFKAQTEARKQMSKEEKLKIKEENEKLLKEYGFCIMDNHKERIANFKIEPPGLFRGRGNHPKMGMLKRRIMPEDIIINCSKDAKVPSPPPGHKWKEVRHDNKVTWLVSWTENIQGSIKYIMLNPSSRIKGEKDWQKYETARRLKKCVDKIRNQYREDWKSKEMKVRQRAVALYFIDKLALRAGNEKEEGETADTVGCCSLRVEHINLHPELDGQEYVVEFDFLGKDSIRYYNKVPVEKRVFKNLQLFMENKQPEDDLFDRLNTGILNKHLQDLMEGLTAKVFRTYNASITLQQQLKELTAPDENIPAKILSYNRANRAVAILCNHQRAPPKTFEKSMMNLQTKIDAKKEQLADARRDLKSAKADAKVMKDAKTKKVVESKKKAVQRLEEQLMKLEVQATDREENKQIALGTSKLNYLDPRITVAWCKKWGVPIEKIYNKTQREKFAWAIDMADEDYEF

Histone deacetylase 1 = Histone deacetylase 1 (Homo sapiens, UniProt Q13547); experiment: Inhibition of full-length recombinant human HDAC1 expressed in Baculovirus expression system using Ac-Leu-Gly-Lys(Ac)-AMC as substrate preincubated for 5 mins followed by substrate addition and further incubated for 30 mins by fluorescence based microtiter plate reader assay
MCF7 = experiment: Antiproliferative activity against human MCF7 cells assessed as cell growth inhibition incubated for 8 hrs by CCK8 assay; format: functional, cell-based; settings: MCF7, 8 h
A549 = experiment: Antiproliferative activity against human A549 cells assessed as cell growth inhibition incubated for 8 hrs by CCK8 assay; format: functional, cell-based; settings: A549, 8 h
HCT-116 = experiment: Antiproliferative activity against human HCT-116 cells assessed as cell growth inhibition incubated for 8 hrs by CCK8 assay; format: functional, cell-based; settings: HCT-116, 8 h
HepG2 = experiment: Antiproliferative activity against human HepG2 cells assessed as cell growth inhibition incubated for 8 hrs by CCK8 assay; format: functional, cell-based; settings: HepG2, 8 h
K562 = experiment: Antiproliferative activity against human K562 cells assessed as cell growth inhibition incubated for 8 hrs by CCK8 assay; format: functional, cell-based; settings: K562, 8 h
HEL = experiment: Antiproliferative activity against HEL cells assessed as cell growth inhibition incubated for 8 hrs by CCK8 assay; format: functional, cell-based; settings: Homo sapiens
[2] = target: DNA topoisomerase 2-alpha (Homo sapiens) (UniProt P11388); experiment: Inhibition of recombinant Top2 (unknown origin) assessed as inhibition of relaxation of supercoiled pBR322 plasmid DNA at 100 uM incubated for 15 mins by ethidium bromide staining based agarose gel electrophoresis analysis
[3] = target: DNA topoisomerase 2-alpha (Homo sapiens) (UniProt P11388); experiment: Inhibition of recombinant Top2 (unknown origin) assessed as inhibition of relaxation of supercoiled pBR322 plasmid DNA at 50 uM incubated for 15 mins by ethidium bromide staining based agarose gel electrophoresis analysis

Sequence of DNA topoisomerase 2-alpha (Homo sapiens) (P11388 whole entry): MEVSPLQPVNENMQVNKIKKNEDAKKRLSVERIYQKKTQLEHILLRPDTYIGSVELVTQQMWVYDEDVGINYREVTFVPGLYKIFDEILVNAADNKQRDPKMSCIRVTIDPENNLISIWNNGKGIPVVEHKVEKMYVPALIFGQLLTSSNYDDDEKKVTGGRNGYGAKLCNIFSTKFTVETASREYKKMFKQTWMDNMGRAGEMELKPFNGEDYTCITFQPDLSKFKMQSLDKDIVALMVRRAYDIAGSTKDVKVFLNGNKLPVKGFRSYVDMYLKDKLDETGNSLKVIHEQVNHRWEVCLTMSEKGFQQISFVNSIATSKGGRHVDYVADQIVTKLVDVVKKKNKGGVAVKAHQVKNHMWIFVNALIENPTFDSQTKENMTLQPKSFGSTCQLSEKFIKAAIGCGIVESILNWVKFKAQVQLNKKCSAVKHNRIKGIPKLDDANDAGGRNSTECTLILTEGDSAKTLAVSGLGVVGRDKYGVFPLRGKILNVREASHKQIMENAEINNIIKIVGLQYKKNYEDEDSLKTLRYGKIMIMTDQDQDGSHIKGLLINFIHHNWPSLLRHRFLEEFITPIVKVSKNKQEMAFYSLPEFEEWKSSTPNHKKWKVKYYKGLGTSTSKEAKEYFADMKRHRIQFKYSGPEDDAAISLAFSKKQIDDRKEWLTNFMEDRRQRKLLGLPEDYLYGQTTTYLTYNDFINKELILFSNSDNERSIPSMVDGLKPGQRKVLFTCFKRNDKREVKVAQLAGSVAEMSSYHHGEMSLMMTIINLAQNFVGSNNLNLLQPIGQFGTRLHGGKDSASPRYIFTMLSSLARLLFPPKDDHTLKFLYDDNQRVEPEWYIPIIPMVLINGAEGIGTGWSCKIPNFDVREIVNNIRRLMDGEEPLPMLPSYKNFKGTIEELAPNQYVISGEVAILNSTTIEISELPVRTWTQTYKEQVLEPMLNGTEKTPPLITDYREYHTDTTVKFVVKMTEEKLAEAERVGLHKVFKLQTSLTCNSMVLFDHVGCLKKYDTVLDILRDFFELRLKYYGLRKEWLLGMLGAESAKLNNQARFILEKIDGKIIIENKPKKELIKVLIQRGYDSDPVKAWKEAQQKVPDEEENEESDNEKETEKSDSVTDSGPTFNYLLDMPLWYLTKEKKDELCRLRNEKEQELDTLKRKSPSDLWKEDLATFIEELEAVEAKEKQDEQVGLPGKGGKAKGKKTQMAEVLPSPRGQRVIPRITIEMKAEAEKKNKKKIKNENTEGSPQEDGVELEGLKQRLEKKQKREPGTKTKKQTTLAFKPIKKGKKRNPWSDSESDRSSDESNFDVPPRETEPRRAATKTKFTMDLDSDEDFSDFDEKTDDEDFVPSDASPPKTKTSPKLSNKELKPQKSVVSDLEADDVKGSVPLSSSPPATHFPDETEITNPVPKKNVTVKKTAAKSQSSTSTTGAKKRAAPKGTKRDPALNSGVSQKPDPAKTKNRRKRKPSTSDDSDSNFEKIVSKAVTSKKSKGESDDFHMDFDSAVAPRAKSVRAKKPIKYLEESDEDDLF
Sequence of Histone deacetylase 1 (Q13547 whole entry): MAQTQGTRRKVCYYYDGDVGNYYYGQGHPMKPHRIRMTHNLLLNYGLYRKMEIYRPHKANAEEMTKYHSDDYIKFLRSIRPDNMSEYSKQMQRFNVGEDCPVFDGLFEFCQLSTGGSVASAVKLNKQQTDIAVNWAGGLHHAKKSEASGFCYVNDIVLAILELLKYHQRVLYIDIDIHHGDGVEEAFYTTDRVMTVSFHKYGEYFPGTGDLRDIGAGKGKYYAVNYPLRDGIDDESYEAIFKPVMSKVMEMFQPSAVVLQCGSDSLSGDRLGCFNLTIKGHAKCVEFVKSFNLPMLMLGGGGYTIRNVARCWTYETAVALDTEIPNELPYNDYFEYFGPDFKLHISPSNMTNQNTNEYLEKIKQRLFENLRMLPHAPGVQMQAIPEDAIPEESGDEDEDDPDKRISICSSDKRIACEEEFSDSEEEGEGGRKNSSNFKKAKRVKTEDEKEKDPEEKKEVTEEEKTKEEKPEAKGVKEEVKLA

SMILES	inhibition [1]	IC50 (Histone deacetylase 1) [nM]	IC50 (MCF7) [nM]	IC50 (A549) [nM]	IC50 (HCT-116) [nM]	IC50 (HepG2) [nM]	IC50 (K562) [nM]	IC50 (HEL) [nM]	inhibition [2]	inhibition [3]
CN1c2ccc(F)cc2C(=O)N2CCc3c([nH]c4ccc(OCc5cccc(C(=O)Nc6ccccc6N)c5)cc34)C21 (stereo not drawn)	inactive	3600	> 2000	1320	> 2000	420	1380	660		
CN1c2ccc(F)cc2C(=O)N2CCc3c([nH]c4ccc(OCCCCCCCC(=O)NO)cc34)C21 (stereo not drawn)	Active	150	> 2000	1580	> 2000	> 2000	> 2000	1580	inactive	
CN1c2ccc(F)cc2C(=O)N2CCc3c([nH]c4ccc(OCc5ccc(C(=O)NO)cc5)cc34)C21 (stereo not drawn)	inactive	32	160	> 2000	500	98	250	> 2000	Active	Active
CN1c2ccc(F)cc2C(=O)N2CCc3c([nH]c4ccc(OCc5ccccc5C(=O)Nc5ccccc5N)cc34)C21 (stereo not drawn)	inactive	1900	420	830	220	440	920	820		
CC[C@@]1(O)C(=O)OCc2c1cc1n(c2=O)Cc2cc3c(CN(C)C)c(O)ccc3nc2-1 [TOPOTECAN]			140	8300	970	3300	910	26000		
CN1c2ccc(F)cc2C(=O)N2CCc3c([nH]c4ccc(OCCCC(=O)NO)cc34)C21 (stereo not drawn)	Active	2200	1230	> 2000	> 2000	> 2000	550	270	Active	Active
CN1c2ccc(F)cc2C(=O)N2CCc3c([nH]c4ccc(OCCCCCCC(=O)NO)cc34)C21 (stereo not drawn)	Active	3	210	630	830	200	> 2000	> 2000	Active	Active
CN1c2ccc(F)cc2C(=O)N2CCc3c([nH]c4ccc(OCCCCCC(=O)Nc5ccccc5N)cc34)C21 (stereo not drawn)	inactive	320	> 2000	720	> 2000	> 2000	1200	1100		
CN1c2ccc(F)cc2C(=O)N2CCc3c([nH]c4ccc(OCc5cccc(C(=O)NO)c5)cc34)C21 (stereo not drawn)	Active	1900	> 2000	> 2000	> 2000	1620	> 2000	580	Active	Active
CN1c2ccc(F)cc2C(=O)N2CCc3c([nH]c4ccc(OCc5ccccc5C(=O)NO)cc34)C21 (stereo not drawn)	Active	6100	800	1210	150	120	86	290	Active	Active
CN1c2ccc(F)cc2C(=O)N2CCc3c([nH]c4ccc(OCCCCCC(=O)NO)cc34)C21 (stereo not drawn)	inactive	4	150	300	120	210	670	100	Active	Active
CN1c2ccc(F)cc2C(=O)N2CCc3c([nH]c4ccc(OCCCCC(=O)Nc5ccccc5N)cc34)C21 (stereo not drawn)	inactive	2100	1260	820	600	1250	> 2000	720		
CN1c2ccc(F)cc2C(=O)N2CCc3c([nH]c4ccc(OCCCC(=O)Nc5ccccc5N)cc34)C21 (stereo not drawn)	inactive	2200	52000	1250	1030	160	280	350		
CN1c2ccc(F)cc2C(=O)N2CCc3c([nH]c4ccc(OCCCCC(=O)NO)cc34)C21 (stereo not drawn)	inactive	21	1560	330	> 2000	810	410	580	Active	Active
CN1c2ccc(F)cc2C(=O)N2CCc3c([nH]c4ccc(OCc5ccc(CC(=O)NO)cc5)cc34)C21 (stereo not drawn)	Active	360	> 2000	> 2000	> 2000	520	180	100	Active	Active
CN1c2ccc(F)cc2C(=O)N2CCc3c([nH]c4ccc(OCCCCCCC(=O)Nc5ccccc5N)cc34)C21 (stereo not drawn)	Active	25	830	810	> 2000	1260	1380	1850	Active	Active
CN1c2ccc(F)cc2C(=O)N2CCc3c([nH]c4ccc(OCc5ccc(C(=O)Nc6ccccc6N)cc5)cc34)C21 (stereo not drawn)	Active	31	1910	> 2000	> 2000	125000	250	44		

— ChEMBL document CHEMBL5046291, “Evodiamine-Inspired Topoisomerase-Histone Deacetylase Dual Inhibitors: Novel Orally Active Antitumor Agents for Leukemia Therapy” (J Med Chem, 2022)
